Measurements from patent US20240174637A1, “DEGRADERS OF GRK2 AND USES THEREOF” (Sonata Therapeutics, Inc., priority 2021, published 2024).
Read-outs that look alike come from different tables or passages of the source.

Experiments:
[1] = target: T1, GRK2 (Homo sapiens, UniProt P25098); assay: GRK2 Inhibition Assay (TR-FRET, Example 1); assay type: biochemical; conditions: TR-FRET, 7 μM ATP; read-out: Enzymatic GRK2 Assay: IC50 (nM) (Example 1)
T1 sequence (P25098 1-689): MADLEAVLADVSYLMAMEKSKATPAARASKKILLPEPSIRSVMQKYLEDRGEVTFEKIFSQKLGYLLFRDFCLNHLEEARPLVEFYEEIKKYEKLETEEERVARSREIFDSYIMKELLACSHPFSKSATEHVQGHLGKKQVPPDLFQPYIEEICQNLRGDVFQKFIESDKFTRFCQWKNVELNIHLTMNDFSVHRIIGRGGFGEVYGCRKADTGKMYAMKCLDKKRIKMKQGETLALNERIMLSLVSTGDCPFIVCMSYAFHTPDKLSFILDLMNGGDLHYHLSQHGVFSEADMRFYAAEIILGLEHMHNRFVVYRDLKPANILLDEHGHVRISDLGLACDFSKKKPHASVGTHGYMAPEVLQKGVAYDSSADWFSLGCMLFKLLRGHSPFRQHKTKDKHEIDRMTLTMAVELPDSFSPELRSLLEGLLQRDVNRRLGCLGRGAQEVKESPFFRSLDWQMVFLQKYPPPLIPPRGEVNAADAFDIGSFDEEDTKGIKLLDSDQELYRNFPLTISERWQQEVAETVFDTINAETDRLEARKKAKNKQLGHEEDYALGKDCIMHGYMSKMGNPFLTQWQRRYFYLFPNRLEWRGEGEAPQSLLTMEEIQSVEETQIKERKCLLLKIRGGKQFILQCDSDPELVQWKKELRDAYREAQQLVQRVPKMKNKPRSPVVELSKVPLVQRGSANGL
Experimental: Assay: GRK2 enzyme (1 nM final concentration) was diluted in 25 mM HEPES, 10 mM MgCl2, 2 mM DTT, 0.01% Tween-20, and 1 mM EGTA. Then the GRK2 mixture was added into ProxiPlate-384 white plate and pre-incubated for 30 min with test compounds at room temperature. ATP (7 μM final concentration) and Ulight TopoIIα (50 nM final concentration) were added into the assay plate to initiate the reaction and the mixture was incubated at room temperature for 90 min. Then, Eu anti-TopoIIα (0.12 nM final concentration), BSA (0.01% final concentration), and EDTA (11 mM final concentration) in LANCE assay buffer were added into each well. After 60 min incubation time at room temperature, TR-FRET signal was measured by EnVision plate reader.

[2] = test system: PAXF1657 KO Clone #4; assay: 7-day cellular proliferation assay (CellTiter-Glo), PAXF1657 KO Clone #4; assay type: cell-based
Experimental: (§1) In order to identify compounds specific for GRK2, we generated two isogenic cell line pairs of the pancreatic cancer cell line PAXF1657, a pair of cells stably overexpressing GRK2 cDNA or the control empty vector and a cell line pair of PAXF1657 GRK2 knockout clonal cells versus non-targeting control clonal cells.
(§2) Proliferation Assay: Cellular anti-proliferative activity of compounds was assessed by using the pancreatic cancer cell line, PAXF1657, stably overexpressing GRK2 cDNA or the control empty vector, as well as the parental urinary bladder cancer cell line, 5637. In addition, we also took advantage of GRK2 knockout cell lines that were generated via CRISPR. Cell lines were seeded into tissue culture treated, white-walled, 96-well plates at a density of 500 cells/well in RPMI1640 media supplemented with 10% H.I. FBS and penicillin/streptomycin. Plates were incubated overnight at 37° C., 5% CO2 to allow cells to adhere to the wells. GRK2 inhibitors were added to the cells using a 10-point dilution series with a final concentration ranging from 30 μM-0.0002 μM in 0.3% DMSO. At the time of compound addition, a set of plates, that were not treated with compounds, were collected and cell viability was measured using CellTiter-Glo (Promega). CellTiter-Glo reagent was added to the designed plates and luminescence was measuring using a Biotek Synergy plate reader. The compound treated cells were incubated for 3 days at 37° C., 5% CO2. The media was then aspirated from each well and replaced with fresh media containing GRK2 inhibitors. The compound treated cells were then incubated for an additional 4 days at 37° C., 5% CO2. Cell viability was assessed and at end of the 7-day compound treatment by CellTiterGlo.

[3] = target: T1, GRK2; assay: GRK2 Degradation Assay and Western Blot in PAXF1657 cells; assay type: cell-based; parameters: endogenous in cells; host or cells: PAXF1657
Experimental: General Protocol: Degradation Assay and Western Blot. PAXF1657 cells were plated in 6-well, 24-well plates or 60 mm tissue culture treated dishes and incubated at 37° C. until 70% confluency. The media was aspirated, and the cells were treated with fresh media containing the compounds in the concentration range of 0 μM to 10 μM for a period of 6 to 24 hours. At the desired time points the cells were washed twice with cold PBS and lysed with lysis buffer (ice cold PBS+1% NP40 with 1/100 protease/phosphatase inhibitors) on ice for 8 mins followed by sonication at 70% intensity pulses for 10 seconds. The cells were centrifuged at 20000 g for 8 min at 4° C. The supernatants were collected and stored at −80° C.
Samples were mixed with NuPAGE LDS sample buffer and NuPAGE sample reducing buffer (3×), vortexed and heated at 95° C. for 10 min, and then analyzed by SDS-PAGE (NuPAGE 4-12%) followed by transfer to nitrocellulose membrane. […] The membranes were washed three times with TBST and incubated with GRK2 or R-actin antibodies in 5% milk in TBST at 4° C. overnight. The membranes were washed three times with TBST and incubated with anti-mouse IgG-HRP or anti-rabbit IgG-HRP at room temperature for 2 hours in 5% milk in TBST. The membranes were washed three times with TBST and developed with ECL Dura, ECL femto or ECL atto substrates.

[4] = test system: PAXF1657 EV; assay: 7-day cellular proliferation assay (CellTiter-Glo), PAXF1657 EV; assay type: cell-based
Experimental: as §1, §2

[5] = proliferation, read-out: GeoMean IC50 (uM) PAXF1657 KO Clone #4
[6] = Conc 0.3 uM, read-out: Degradation Assay - 3 point: Degradation (%)
[7] = Conc 1 uM, read-out: Degradation Assay - 3 point: Degradation (%)
[8] = Conc 3 uM, read-out: Degradation Assay - 3 point: Degradation (%)
[9] = proliferation, read-out: GeoMean IC50 (UM) PAXF1657 EV

SMILES	IC50 [1] [nM]	IC50 [2, 5] [µM]	inhibition at 0.3 µM [3, 6] [%]	inhibition at 1 µM [3, 7] [%]	inhibition at 3 µM [3, 8] [%]	IC50 [4, 9] [µM]	also measured
C[C@@H](NC(=O)c1cccc(NCc2nnc(-c3ccncn3)n2C)c1)c1cc(OCCCCCCOCCOCCOCCCCCC(=O)Nc2cccc3c2CN(C2CCC(=O)NC2=O)C3=O)ccc1F (stereo partly drawn) [Compound D54, N-((1R)-1-(5-((6-(2-(2-((6-((2-(2,6-dioxopiperidin-3-yl)-1-oxoisoindolin-4-yl)amino)-6-oxohexyl)oxy)ethoxy)ethoxy)hexyl)oxy)-2-fluorophenyl)ethyl)-3-(((4-methyl-5-(pyrimidin-4-yl)-4H-1,2,4-triazol-3-yl)methyl)amino)benzamide]	< 100						
C[C@H](NC(=O)c1cccc(NCc2nnc(-c3ccncn3)n2C)c1)c1cc(OCCCCCCOCCOCCOCCCCCC(=O)Nc2cccc3c2CN(C2CCC(=O)NC2=O)C3=O)ccc1F (stereo partly drawn) [Compound D53, N-((1S)-1-(5-((6-(2-(2-((6-((2-(2,6-dioxopiperidin-3-yl)-1-oxoisoindolin-4-yl)amino)-6-oxohexyl)oxy)ethoxy)ethoxy)hexyl)oxy)-2-fluorophenyl)ethyl)-3-(((4-methyl-5-(pyrimidin-4-yl)-4H-1,2,4-triazol-3-yl)methyl)amino)benzamide]	100 to 1000						
Cc1ncsc1-c1ccc(CNC(=O)[C@@H]2C[C@@H](O)CN2C(=O)[C@@H](NC(=O)CCCCCOCCOCCOCCCCCCOc2ccc(F)c([C@@H](C)NC(=O)c3cccc(NCc4nnc(-c5ccncn5)n4C)c3)c2)C(C)(C)C)cc1 [Compound D75, (2S,4R)-1-((S)-2-(tert-butyl)-22-(4-fluoro-3-((R)-1-(3-(((4-methyl-5-(pyrimidin-4-yl)-4H-1,2,4-triazol-3-yl)methyl)amino)benzamido)ethyl)phenoxy)-4-oxo-10,13,16-trioxa-3-azadocosan-1-oyl)-4-hydroxy-N-(4-(4-methylthiazol-5-yl)benzyl)pyrrolidine-2-carboxamide]	< 100						
Cc1ncsc1-c1ccc(CNC(=O)[C@@H]2C[C@@H](O)CN2C(=O)C(NC(=O)CCCCc2cn(CCCCCCOc3cccc(CNC(=O)c4cccc(NCc5nnc(-c6ccncn6)n5C)c4)c3)nn2)C(C)(C)C)cc1 (stereo partly drawn) [Compound D84]	< 100						
Cc1ncsc1-c1ccc(CNC(=O)[C@@H]2C[C@H](O)CN2C(=O)[C@@H](NC(=O)CCCCCOCCOCCOCCCCCCOc2cccc(CNC(=O)c3cccc(NCc4nnc(-c5ccncn5)n4C)c3)c2)C(C)(C)C)cc1 [Compound D89]	< 100						
Cc1ncsc1-c1ccc(CNC(=O)[C@@H]2C[C@@H](O)CN2C(=O)[C@@H](NC(=O)CCCCCOCCOCCOCCCCCCOc2ccc(F)c([C@H](C)NC(=O)c3cccc(NCc4nnc(-c5ccncn5)n4C)c3)c2)C(C)(C)C)cc1 [Compound D74, (2S,4R)-1-((S)-2-(tert-butyl)-22-(4-fluoro-3-((S)-1-(3-(((4-methyl-5-(pyrimidin-4-yl)-4H-1,2,4-triazol-3-yl)methyl)amino)benzamido)ethyl)phenoxy)-4-oxo-10,13,16-trioxa-3-azadocosan-1-oyl)-4-hydroxy-N-(4-(4-methylthiazol-5-yl)benzyl)pyrrolidine-2-carboxamide]	100 to 1000						
Cn1c(CNc2cccc(C(=O)NCc3cccc(OCCCCCn4cc(CCCCC(=O)Nc5cccc6c5CN(C5CCC(=O)NC5=O)C6=O)nn4)c3)c2)nnc1-c1ccncn1 (stereo not drawn) [Compound D58]							IC50 ([2]; 168 h, 7-day, read-out: 7-day proliferation assay: IC50 GeoMean (uM) [Cell Line: PAXF1657 KO Clone #4]): > 10 µM; inhibition at 0.3 µM ([3]; 0.3 uM, PAXF1657 EV, 24 hrs, read-out: % GRK2 degradation at 0.3 uM in PAXF1657 EV (24 hrs)): 7%; inhibition at 1 µM ([3]; 1 uM, PAXF1657 EV, 24 hrs, read-out: % GRK2 degradation at 1 uM in PAXF1657 EV (24 hrs)): 41%; inhibition at 3 µM ([3]; 3 uM, PAXF1657 EV, 24 hrs, read-out: % GRK2 degradation at 3 uM in PAXF1657 EV (24 hrs)): 68%; IC50 ([4]; 168 h, 7-day, read-out: 7-day proliferation assay: IC50 GeoMean (uM) [Cell Line: PAXF1657 EV]): 1 to 10 µM
Cc1ncsc1-c1ccc(CNC(=O)[C@@H]2C[C@@H](O)CN2C(=O)[C@@H](NC(=O)COCCCOCCCCCOc2cccc([C@@H](C)NC(=O)c3cccc(NCc4nnc(-c5ccncn5)n4C)c3)c2)C(C)(C)C)cc1 [Compound D182, (2S,4R)-1-((S)-3,3-dimethyl-2-(2-(3-((5-(3-((R)-1-(3-(((4-methyl-5-(pyrimidin-4-yl)-4H-1,2,4-triazol-3-yl)methyl)amino)benzamido)ethyl)phenoxy)pentyl)oxy)propoxy)acetamido)butanoyl)-4-hydroxy-N-(4-(4-methylthiazol-5-yl)benzyl)pyrrolidine-2-carboxamide]		10	29.1	29.5	21.3	0.12	DC50 ([3]; PAXF1657, 24 h, read-out: Degradation Assay - Full Dose Response: IC50 (uM) [cell line: PAXF1657, time point: 24 h]): 0.38 µM
Cn1c(CNc2cccc(C(=O)NCc3cccc(OCCCCCCOCCOCCOCCC(=O)Nc4cccc5c4CN(C4CCC(=O)NC4=O)C5=O)c3)c2)nnc1-c1ccncn1 (stereo not drawn) [Compound D195, N-(3-(6-(2-(2-(3-(2-(2,6-dioxopiperidin-3-yl)-1-oxoisoindolin-4-ylamino)-3-oxopropoxy)ethoxy)ethoxy)hexyloxy)benzyl)-3-((4-methyl-5-(pyrimidin-4-yl)-4H-1,2,4-triazol-3-yl)methylamino)benzamide]		> 30	-46.4	9.8	32.1	1.09	
C[C@@H](NC(=O)c1cccc(NCc2nnc(-c3ccncn3)n2C)c1)c1cccc(OCCCCCCn2cc(CCC(=O)Nc3cccc4c3CN(C3CCC(=O)NC3=O)C4=O)nn2)c1 (stereo partly drawn) [Compound D159]		> 30	10	46.3	64.5	18.2	
